Results on two compounds are retold here after article PMC4097363, “Trace amines inhibit insect odorant receptor function through antagonism of the co-receptor subunit” (F1000Research, 2014).

Assay in all cases: Inhibition of odorant activation of heteromeric OR in Xenopus oocytes
Experiment [1] deals with Onub\Orco+Onub\Or6. Type of experiment: cell-based, Ostrinia nubilalis. The following applies: activated by 1µM Z11-14:OAc; 10µM tryptamine or 100µM tyramine. The procedure: (§1) Follicle cells were removed by treatment with collagenase B (Boehringer Mannheim) for 2 hours at room temperature. Capped cRNA encoding each OR subunit was generated using mMessage mMachine kits (Ambion). For heteromeric ORs, 25 ng of cRNA encoding each OR subunit was injected into Stage V-VI Xenopus oocytes. For expression of Orco homomers, 50 ng of cRNA was injected. Oocytes were incubated at 18°C in Barth's saline (in mM: 88 NaCl, 1 KCl, 2.4 NaHCO 3, 0.3 CaNO 3, 0.41 CaCl 2, 0.82 MgSO 4, 15 HEPES, pH 7.6, and 150µg/ml ceftazidime) for 2–5 days prior to electrophysiological recording.
(§2) Odorant and Orco ligand induced currents were recorded under two-electrode voltage clamp, using an automated parallel electrophysiology system (OpusExpress 6000A, Molecular Devices). Oocytes were perfused with ND96 (in mM: 96 NaCl, 2 KCl, 1 CaCl 2, 1 MgCl 2, 5 HEPES, pH 7.5). Orco ligands were prepared as 50 or 100 mM stock solutions in DMSO and then diluted into ND96 on the day of the experiment. Odorants were prepared as 100 mM stock solutions in DMSO and then diluted into ND96. Unless otherwise noted, applications were for 60 sec at a flow rate of 1.0 ml/min, with extensive washing in ND96 at 4.6 ml/min between applications. Micropipettes were filled with 3 M KCl and had resistances of 0.2–2.0 MΩ. The holding potential was -70 mV. […]

The target of experiment [2] is T1, Agam\Orco+Agam\Or48 (Anopheles gambiae, UniProt Q7QCC7).
T1 sequence (Q7QCC7 1-478): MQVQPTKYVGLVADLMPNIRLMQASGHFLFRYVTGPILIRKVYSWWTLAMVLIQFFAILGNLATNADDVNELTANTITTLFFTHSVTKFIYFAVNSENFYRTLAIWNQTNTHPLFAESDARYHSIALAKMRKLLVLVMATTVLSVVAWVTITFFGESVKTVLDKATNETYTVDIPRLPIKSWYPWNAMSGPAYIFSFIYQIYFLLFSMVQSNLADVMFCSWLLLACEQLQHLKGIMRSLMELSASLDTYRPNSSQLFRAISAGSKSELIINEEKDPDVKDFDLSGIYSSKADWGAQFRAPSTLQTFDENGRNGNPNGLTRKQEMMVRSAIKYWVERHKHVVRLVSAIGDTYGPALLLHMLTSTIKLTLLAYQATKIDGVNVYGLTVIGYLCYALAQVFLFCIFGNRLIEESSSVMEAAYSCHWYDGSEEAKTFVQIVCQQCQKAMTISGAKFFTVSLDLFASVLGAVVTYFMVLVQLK
The experiment is classed as cell-based. To be noted: activated by 3µM 2-nonanone; 10µM tryptamine or 100µM tyramine. The procedure:
as §1, §2

For experiment [3], the target named is Agam\Orco+Agam\Or65 (Anopheles gambiae, UniProt Q7QCC7). The experiment is classed as cell-based. The following applies: for IC50: IC 50 for inhibition of responses to eugenol; for inhibition of odorant activation of the OR: activated by 100nM eugenol, 10µM tryptamine or 100µM tyramine. The procedure:
as §1
Odorant and Orco ligand induced currents were recorded under two-electrode voltage clamp, using an automated parallel electrophysiology system (OpusExpress 6000A, Molecular Devices). Oocytes were perfused with ND96 (in mM: 96 NaCl, 2 KCl, 1 CaCl 2, 1 MgCl 2, 5 HEPES, pH 7.5). Orco ligands were prepared as 50 or 100 mM stock solutions in DMSO and then diluted into ND96 on the day of the experiment. Odorants were prepared as 100 mM stock solutions in DMSO and then diluted into ND96. Unless otherwise noted, applications were for 60 sec at a flow rate of 1.0 ml/min, with extensive washing in ND96 at 4.6 ml/min between applications. Micropipettes were filled with 3 M KCl and had resistances of 0.2–2.0 MΩ. The holding potential was -70 mV. Current responses, filtered (4-pole, Bessel, low pass) at 20 Hz (-3 db) and sampled at 100 Hz, were captured and stored using OpusXpress 1.1 software (Molecular Devices).
To measure inhibition of odorant activation of heteromeric ORs ( Figures 4B, 4C, Figure 5B and Figure 6), oocytes were exposed to a 30 sec application of odorant followed by a 10 min wash. Oocytes were then exposed to a 90 sec application of tryptamine or tyramine, immediately followed by a 30 sec co-application of tryptamine or tyramine and odorant. The current response in the presence of antagonist candidate was compared to the preceding response to odorant alone and expressed as a percentage. […] For this reason, we then re-normalized antagonism data to the value obtained when the assay was run in the absence of antagonist candidate (sham). In the “sham” assay, oocytes were exposed to a 30 sec application of odorant followed by a 10 min wash and then exposed to a 90 sec application of ND96 (no antagonist candidate), immediately followed by a 30 sec application of odorant. The second odorant response was compared to the first response and expressed as a percentage. In Figure 4B, 4C, Figure 5B and Figure 6, the sham value for 100nM eugenol was 57 ± 3% (mean ± SEM, n = 3). In Figure 5B, the sham value for 10nM eugenol was 93 ± 4% (n = 4). In Figure 4B and C, the sham value for 1µM Z11-14:OAc was 82 ± 6% (n = 6) and the sham value for 150µM 2-phenylethanol was 92 ± 2% (n = 3). In Figure 6, the sham value for 3µM L-fenchone was 83 ± 1% (n = 3), the sham value for 40µM acetophenone was 92 ± 1% (n = 3), the sham value for 70µM geranyl acetate was 97 ± 1% (n = 3), the sham value for 10µM 6-methyl-5-hepten-2-one was 94 ± 2% (n = 3) and the sham value for 3µM 2-nonanone was 81 ± 1% (n = 3).
Initial analysis of electrophysiological data was done using Clampfit 9.1 software (Molecular Devices). Curve fitting and statistical analyses were done using Prism 5 (Graphpad). […]

Entries after “also recorded” stand apart in the source; their conditions may differ.

`NCCc1c[nH]c2ccccc12` [tryptamine]: the figures for the “inhibition of odorant activation of the OR” value in experiment [1], in experiment [2] and in experiment [3] were “substantial inhibition of each receptor”, “able to inhibit odorant activation of the receptor” and “substantial inhibition of each receptor; also recorded: able to inhibit odorant activation of the receptor”, respectively. Moreover, the “mechanism of inhibition of odorant activation” value in experiment [3] (Agam\Orco+Agam\Or65, 10nM vs 100nM eugenol) is “non-competitively inhibits odorant activation”. Moreover, the IC50 (usually the concentration that gives 50% inhibition) in experiment [3] (Agam\Orco+Agam\Or65, 10nM eugenol) was 3.1 ± 0.4 µM; in experiment [3] (Agam\Orco+Agam\Or65, 100nM eugenol) it was 3.2 ± 0.3 µM.

Turning to `NCCc1ccc(O)cc1` [tyramine], the “inhibition of odorant activation of the OR” value in experiment [1] was “able to reduce odorant activation of these ORs, but was less effective than tryptamine”; in experiment [2], “able to inhibit odorant activation of each of these receptors, but was less effective than tryptamine”; in experiment [3], “able to reduce odorant activation of these ORs, but was less effective than tryptamine; also recorded: able to inhibit odorant activation of each of these receptors, but was less effective than tryptamine”.
